# Results taken from ChEMBL document CHEMBL1201862, “PubChem BioAssay data set” (2004).
# Active and inactive are the calls of the source.
# Columns and labels:
# [1] = biological target: T1, Long-chain-fatty-acid--AMP ligase FadD28 (Mycobacterium tuberculosis, UniProt P9WQ59); test: Fluorescence polarization aasay to screen for inhibitors that compete for the binding of FadD28 to a bisubstrate Measured in Biochemical System Using Plate Reader - 2147-01_Inhibitor_Dose_CherryPick_Activity.; type: functional, Mycobacterium tuberculosis H37Rv
# T1 sequence (P9WQ59 whole entry): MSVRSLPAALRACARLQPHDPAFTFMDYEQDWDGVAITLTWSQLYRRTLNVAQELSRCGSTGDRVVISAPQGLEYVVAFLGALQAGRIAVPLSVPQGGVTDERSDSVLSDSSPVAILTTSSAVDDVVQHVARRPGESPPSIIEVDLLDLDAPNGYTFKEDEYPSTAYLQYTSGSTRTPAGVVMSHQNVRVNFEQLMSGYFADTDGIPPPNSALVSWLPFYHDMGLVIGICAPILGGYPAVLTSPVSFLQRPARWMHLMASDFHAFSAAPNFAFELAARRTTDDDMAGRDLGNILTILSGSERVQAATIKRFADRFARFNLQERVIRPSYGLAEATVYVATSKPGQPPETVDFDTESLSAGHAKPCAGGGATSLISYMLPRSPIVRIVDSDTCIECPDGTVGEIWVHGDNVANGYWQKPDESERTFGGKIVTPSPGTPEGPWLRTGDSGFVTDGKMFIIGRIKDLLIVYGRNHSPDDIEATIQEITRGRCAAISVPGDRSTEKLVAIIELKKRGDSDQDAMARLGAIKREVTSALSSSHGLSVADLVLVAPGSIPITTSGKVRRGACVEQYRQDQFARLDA
# Streptokinase A = biological target: T2, Streptokinase A (Streptococcus pyogenes serotype M1, UniProt P10520); test: viability-normalized secreted streptokinase activity reduction – plasminogen activation absorbance, OD405, dose response (AID 1914); type: functional, Streptococcus pyogenes M1 GAS;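 further: secreted streptokinase activity via plasminogen activation per viability signal from cell pellet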
# T2 sequence (P10520 whole entry): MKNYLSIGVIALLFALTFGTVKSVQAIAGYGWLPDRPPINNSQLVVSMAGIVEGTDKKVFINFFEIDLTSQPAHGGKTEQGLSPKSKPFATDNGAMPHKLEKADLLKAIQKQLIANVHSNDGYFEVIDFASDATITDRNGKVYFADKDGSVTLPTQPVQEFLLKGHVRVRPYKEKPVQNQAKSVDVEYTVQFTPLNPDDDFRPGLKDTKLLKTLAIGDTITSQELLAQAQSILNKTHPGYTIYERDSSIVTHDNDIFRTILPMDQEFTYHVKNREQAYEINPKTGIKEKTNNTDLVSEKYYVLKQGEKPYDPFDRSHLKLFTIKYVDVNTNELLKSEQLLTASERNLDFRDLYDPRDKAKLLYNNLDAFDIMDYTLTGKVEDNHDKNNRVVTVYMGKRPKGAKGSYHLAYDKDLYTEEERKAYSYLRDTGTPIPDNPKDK
# Streptococcus = test: GAS UMAA2166 growth inhibition – luminescence, BacTiterGlo, counter-screen for streptokinase expression inhibitor project, dose response (AID 1915); type: functional, organism-based;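 further: potency for reduction of bacterial viability or growth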
# [2] = biological target: T3, Probable nicotinate-nucleotide adenylyltransferase (Staphylococcus aureus (strain N315), UniProt P65502); type: functional, Staphylococcus aureus subsp. aureus N315;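 on IC50 Mean: confirmatory dose-response retesting of NadD inhibitor hits first found in an ultra-high-throughput screen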
# [3] = test system: Streptococcus sp. 'group A'; test: Streptococcus pyogenes SK(-)GAS viability under kanamycin – luminescence, BacTiterGlo, confirmation, counter-screen for streptokinase expression inhibitor project, dose response (AID 1900); type: functional, organism-based
# [4] = biological target: T3, Probable nicotinate-nucleotide adenylyltransferase; type: functional, Staphylococcus aureus subsp. aureus N315; conditions: read-out: IC50_Mean
# [5] = biological target: T4, Endoribonuclease toxin MazF (Escherichia coli K-12, UniProt P0AE70); test: substrate-only fluorescence increase artefacts – biochemical, single-stranded RNase substrate, counter-screen for MazEF activator project, dose response (AID 588502); type: functional
# T4 sequence (P0AE70 whole entry): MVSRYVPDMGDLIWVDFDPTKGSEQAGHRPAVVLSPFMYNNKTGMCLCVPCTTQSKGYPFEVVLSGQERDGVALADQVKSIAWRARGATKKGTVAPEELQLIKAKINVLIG
# [6] = biological target: 72 kDa type IV collagenase (Homo sapiens, UniProt P08253); test: Dose Response validation of uHTS RPN11 inhibitor hits using a MMP-2 Fluorescence assay.; type: functional
# [7] = biological target: 26S proteasome non-ATPase regulatory subunit 14 (Homo sapiens, UniProt O00487); test: inhibition of proteasome subunit RPN11 – biochemical, fluorescence polarization, uHTS hits, confirmation (AID 602368); type: functional
# Prothrombin = Prothrombin (Bos taurus, UniProt P00735); test: thrombin protease inhibitors – biochemical, fluorescence polarization, uHTS hits, dose response (AID 602369); type: functional
# [8] = biological target: T4, Endoribonuclease toxin MazF; test: activation of MazEF endoribonuclease cleavage – biochemical, fluorescence, single-stranded RNA substrate, uHTS hits, dose response (AID 588481); type: functional
# [9] = biological target: T5, Small ubiquitin-related modifier 1 (Homo sapiens, UniProt P63165); test: SUMO1 protein interaction blockers, potency – biochemical, fluorescence polarization, uHTS hits, dose response (AID 624382); type: functional; conditions: read-out: IC50_Mean
# [10] = biological target: T5, Small ubiquitin-related modifier 1; test: SUMO1 protein-protein binding blockers, potency – biochemical, FRET, dose response (AID 624383); type: functional; conditions: read-out: IC50_Mean
# [11] = biological target: T6, DNA repair protein RAD52 homolog (Homo sapiens, UniProt P43351); type: functional, biochemical
# T6 sequence (P43351 whole entry): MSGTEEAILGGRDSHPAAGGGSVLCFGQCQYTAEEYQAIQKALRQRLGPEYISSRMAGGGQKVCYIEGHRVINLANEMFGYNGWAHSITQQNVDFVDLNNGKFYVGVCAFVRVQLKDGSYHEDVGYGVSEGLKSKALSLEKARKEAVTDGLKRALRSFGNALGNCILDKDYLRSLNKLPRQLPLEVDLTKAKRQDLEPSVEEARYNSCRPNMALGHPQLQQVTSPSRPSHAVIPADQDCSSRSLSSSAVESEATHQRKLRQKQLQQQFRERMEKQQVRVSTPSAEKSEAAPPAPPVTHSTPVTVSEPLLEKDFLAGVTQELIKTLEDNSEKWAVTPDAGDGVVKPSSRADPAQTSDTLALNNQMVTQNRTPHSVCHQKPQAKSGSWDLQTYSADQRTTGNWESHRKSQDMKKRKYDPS
# [12] = biological target: T7, DNA repair and recombination protein RAD54-like (Homo sapiens, UniProt Q92698); test: RAD54 Holliday junction migration blockers – biochemical, fluorescence, cherry-picked samples, dose series, confirmation (AID 651657); type: functional
# T7 sequence (Q92698 whole entry): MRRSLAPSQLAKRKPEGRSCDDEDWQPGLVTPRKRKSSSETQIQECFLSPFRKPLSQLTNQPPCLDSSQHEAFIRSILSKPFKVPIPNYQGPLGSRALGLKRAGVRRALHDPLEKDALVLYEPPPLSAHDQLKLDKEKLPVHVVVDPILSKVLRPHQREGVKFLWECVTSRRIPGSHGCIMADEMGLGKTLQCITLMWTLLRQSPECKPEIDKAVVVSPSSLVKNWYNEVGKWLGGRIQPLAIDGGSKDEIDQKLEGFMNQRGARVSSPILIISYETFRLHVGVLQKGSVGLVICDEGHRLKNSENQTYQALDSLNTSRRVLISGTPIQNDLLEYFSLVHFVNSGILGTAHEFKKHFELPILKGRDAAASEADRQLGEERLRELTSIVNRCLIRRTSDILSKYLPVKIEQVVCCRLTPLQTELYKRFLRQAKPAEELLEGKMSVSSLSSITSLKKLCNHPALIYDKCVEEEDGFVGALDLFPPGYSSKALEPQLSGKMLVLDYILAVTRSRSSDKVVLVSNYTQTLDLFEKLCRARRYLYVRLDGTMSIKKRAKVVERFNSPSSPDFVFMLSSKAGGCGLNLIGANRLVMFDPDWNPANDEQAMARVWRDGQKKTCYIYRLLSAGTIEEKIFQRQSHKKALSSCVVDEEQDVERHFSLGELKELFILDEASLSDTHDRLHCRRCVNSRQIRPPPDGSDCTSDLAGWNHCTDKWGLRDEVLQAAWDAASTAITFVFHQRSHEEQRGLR
# Vero = test: viability of Vero cells under compound – cytotoxicity control for flavivirus capping enzyme inhibitors (AID 588742); type: functional; conditions: Chlorocebus sabaeus
# T3 sequence (P65502 whole entry): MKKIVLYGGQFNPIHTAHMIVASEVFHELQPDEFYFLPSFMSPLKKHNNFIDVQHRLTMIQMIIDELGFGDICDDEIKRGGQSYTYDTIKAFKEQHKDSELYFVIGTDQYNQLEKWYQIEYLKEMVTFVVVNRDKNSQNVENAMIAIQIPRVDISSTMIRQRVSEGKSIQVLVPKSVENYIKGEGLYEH
# 26S proteasome non-ATPase regulatory subunit 14, sequence (O00487 whole entry): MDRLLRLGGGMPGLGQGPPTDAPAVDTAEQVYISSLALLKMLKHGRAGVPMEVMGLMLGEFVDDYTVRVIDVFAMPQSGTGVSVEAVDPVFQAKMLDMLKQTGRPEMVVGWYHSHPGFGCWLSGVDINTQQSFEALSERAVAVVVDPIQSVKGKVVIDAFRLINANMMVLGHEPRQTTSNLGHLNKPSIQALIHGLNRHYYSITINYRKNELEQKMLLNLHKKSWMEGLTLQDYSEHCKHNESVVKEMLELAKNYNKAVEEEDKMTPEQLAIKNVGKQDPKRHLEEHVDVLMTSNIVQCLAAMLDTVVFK
# T5 sequence (P63165 whole entry): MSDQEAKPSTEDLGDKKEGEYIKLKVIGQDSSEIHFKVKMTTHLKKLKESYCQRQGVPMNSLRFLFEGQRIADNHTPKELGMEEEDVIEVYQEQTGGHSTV
# 72 kDa type IV collagenase, sequence (P08253 whole entry): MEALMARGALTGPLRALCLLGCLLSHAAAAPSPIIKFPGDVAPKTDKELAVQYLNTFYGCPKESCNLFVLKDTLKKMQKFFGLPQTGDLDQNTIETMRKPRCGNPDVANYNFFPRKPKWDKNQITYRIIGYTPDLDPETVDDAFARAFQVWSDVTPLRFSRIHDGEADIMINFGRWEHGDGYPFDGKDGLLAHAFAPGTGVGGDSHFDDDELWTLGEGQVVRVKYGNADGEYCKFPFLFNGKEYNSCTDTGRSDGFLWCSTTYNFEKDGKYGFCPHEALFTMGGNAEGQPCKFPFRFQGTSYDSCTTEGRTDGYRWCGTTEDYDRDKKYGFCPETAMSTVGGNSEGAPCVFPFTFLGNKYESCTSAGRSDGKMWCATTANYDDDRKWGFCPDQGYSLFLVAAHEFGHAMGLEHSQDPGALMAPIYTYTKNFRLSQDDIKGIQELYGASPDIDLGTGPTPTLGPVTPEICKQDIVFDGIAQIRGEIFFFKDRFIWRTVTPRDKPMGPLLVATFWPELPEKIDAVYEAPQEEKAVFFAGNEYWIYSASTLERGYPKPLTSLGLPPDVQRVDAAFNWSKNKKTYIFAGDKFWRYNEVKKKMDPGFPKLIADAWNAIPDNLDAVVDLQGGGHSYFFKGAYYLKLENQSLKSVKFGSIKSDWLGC
SMILES,IC50 [2],IC50 [4],IC50 [6],IC50 [7],IC50 (Prothrombin),AC50 [11],also measured
CCc1cccc2c(C(=O)CN3C(=O)C(=O)N(C4CCCC4)C3=O)c[nH]c12,–,–,–,–,–,–,AC50 [1]: 32.3 µM (active)
Cc1cc(C)c2nc(NNC(=O)c3cc(=O)c4ccccc4o3)sc2c1,4.41 µM (active),28.2 µM (active),–,–,–,–,EC50 (Streptokinase A): > 150 µM (not active); EC50 (Streptococcus): 7.16 µM (active); EC50 [3]: 0.296 µM (active)
CCCN1C(=O)/C(=C/c2c(NCCCOC(C)C)nc3c(C)cccn3c2=O)SC1=S,–,–,> 100 µM (inactive),0.09 µM (active),0.148 µM (active),–,EC50 [5]: 34.2 µM (inactive); EC50 [8]: 16 µM (active)
NN=C1c2ccccc2C(=O)C1C(=O)C(c1ccccc1)c1ccccc1 (configuration not stated),13.8 µM (active),25.5 µM (active),–,–,–,–,–
CCCCCCCCCCCC1NC(N)=NC(CCCO)=C1C(=O)OC (configuration not stated),–,–,85.8 µM (active),19.9 µM (active),42.3 µM (active),7.72 µM (active),IC50 [9]: > 66.6 µM (inactive); IC50 [10]: 10.1 µM (active)
CN1CCC[C@H]1CCNc1ccc2c(=O)c3ccccc3n(C)c2c1,–,–,–,–,–,2.17 µM (active),AC50 [12]: 5.81 µM (active); CC50 (Vero): 30.7 µM (active)
